Several values for one entry are separate records, joined by “and”; a condition that tells them apart may be missing. Identical values can stand only once.
biological target: ROCK2 (human) (UniProt O75116); experiment: Inhibition of ROCK2 Kinase Activity
Sequence (O75116 whole entry, looked up): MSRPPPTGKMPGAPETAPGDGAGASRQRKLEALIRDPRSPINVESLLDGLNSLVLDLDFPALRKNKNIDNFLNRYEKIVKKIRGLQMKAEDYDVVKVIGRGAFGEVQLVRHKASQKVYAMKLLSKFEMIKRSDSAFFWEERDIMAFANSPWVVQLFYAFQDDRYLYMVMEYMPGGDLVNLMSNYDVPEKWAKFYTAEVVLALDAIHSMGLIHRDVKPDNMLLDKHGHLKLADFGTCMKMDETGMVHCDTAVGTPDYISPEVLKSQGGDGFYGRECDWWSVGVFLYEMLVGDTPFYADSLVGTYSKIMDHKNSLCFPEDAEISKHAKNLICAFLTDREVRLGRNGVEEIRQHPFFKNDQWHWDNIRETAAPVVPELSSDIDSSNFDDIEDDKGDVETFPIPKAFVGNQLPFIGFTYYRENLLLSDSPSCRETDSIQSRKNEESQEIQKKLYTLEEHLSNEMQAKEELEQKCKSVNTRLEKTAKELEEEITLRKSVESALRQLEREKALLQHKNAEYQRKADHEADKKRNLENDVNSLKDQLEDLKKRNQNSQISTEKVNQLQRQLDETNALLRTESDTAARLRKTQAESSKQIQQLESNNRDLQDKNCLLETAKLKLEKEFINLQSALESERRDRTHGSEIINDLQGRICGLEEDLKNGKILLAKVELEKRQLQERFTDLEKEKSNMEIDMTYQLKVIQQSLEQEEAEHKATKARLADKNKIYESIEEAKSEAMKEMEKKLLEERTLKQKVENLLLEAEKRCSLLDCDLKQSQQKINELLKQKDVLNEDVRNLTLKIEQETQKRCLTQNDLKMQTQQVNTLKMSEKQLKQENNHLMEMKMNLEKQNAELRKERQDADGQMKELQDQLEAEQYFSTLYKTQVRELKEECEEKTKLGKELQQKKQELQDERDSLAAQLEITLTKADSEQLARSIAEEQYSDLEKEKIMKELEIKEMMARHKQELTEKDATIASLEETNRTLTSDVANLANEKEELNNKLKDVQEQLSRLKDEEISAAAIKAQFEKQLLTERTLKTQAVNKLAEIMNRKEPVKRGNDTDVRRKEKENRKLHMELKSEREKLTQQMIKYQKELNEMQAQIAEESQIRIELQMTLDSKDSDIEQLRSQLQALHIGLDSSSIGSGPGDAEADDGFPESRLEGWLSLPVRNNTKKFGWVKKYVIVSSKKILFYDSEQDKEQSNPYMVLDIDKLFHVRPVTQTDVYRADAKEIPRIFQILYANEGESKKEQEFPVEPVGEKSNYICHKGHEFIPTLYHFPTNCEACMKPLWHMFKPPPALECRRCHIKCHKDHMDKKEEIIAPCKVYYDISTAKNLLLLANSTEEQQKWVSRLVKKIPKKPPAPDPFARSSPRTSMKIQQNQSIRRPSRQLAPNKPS

Row | IC50 | Compound
1 | ≤ 10 nM | N[C@@H](c1ccc(F)cc1)C1CCC(Oc2cc3cc[nH]c(=O)c3cc2Cl)CC1 (some centres undefined)
2 | ≤ 10 nM | CCC(N)[C@]1(c2ccc(C)c(OC)c2)CC[C@H](Oc2cc3cc[nH]c(=O)c3cc2Cl)CC1 (some centres undefined)
3 | ≤ 10 nM and 10 to 100 nM | Cc1ccc(C(N)C2CCC(Oc3cc4cc[nH]c(=O)c4cc3Cl)CC2)cc1 (centres undefined)
4 | 100 to 1000 nM | CCC(N)C1(c2ccc(F)cc2)CC(Oc2cc3cc[nH]c(=O)c3cc2Cl)C1 (centres undefined)
5 | ≤ 10 nM | NC(c1ccc(F)cc1)C1CCC(Oc2cc3cc[nH]c(=O)c3cc2Cl)CC1 (centres undefined)
6 | 10 to 100 nM | CC(N)(c1ccccc1)C1CCC(Oc2cc3cc[nH]c(=O)c3cc2Cl)CC1 (centres undefined)
7 | 100 to 1000 nM | N[C@H](c1ccc(F)cc1)C1CCC(Oc2cc3cc[nH]c(=O)c3cc2Cl)CC1 (some centres undefined)
8 | 100 to 1000 nM and 10 to 100 nM | CCC(N)(CC)C1CCC(Oc2cc3cc[nH]c(=O)c3cc2Cl)CC1 (centres undefined)
9 | 10 to 100 nM | CCC(N)C1CCC(Oc2cc3cc[nH]c(=O)c3cc2Cl)CC1 (centres undefined)
10 | 10 to 100 nM | COc1ccc(C(N)[C@H]2CC[C@H](Oc3cc4cc[nH]c(=O)c4cc3Cl)CC2)cc1 (some centres undefined)
11 | 10 to 100 nM | CC(N)(c1ccc(F)cc1)C1CCC(Oc2cc3cc[nH]c(=O)c3cc2Cl)CC1 (centres undefined)
12 | 10 to 100 nM | N[C@H](c1ccccc1)[C@]1(c2ccccc2)CC[C@@H](Oc2cc3cc[nH]c(=O)c3cc2Cl)CC1
13 | 100 to 1000 nM | NC(C1CCC(Oc2cc3cc[nH]c(=O)c3cc2Cl)CC1)C1CC1 (centres undefined)
14 | 10 to 100 nM | CCCC(C)(N)C1CCC(Oc2cc3cc[nH]c(=O)c3cc2Cl)CC1 (centres undefined)
15 | 10 to 100 nM | COc1ccc(C(C)(N)C2CCC(Oc3cc4cc[nH]c(=O)c4cc3Cl)CC2)cc1 (centres undefined)
16 | ≤ 10 nM | COc1ccc(C(N)[C@H]2CC[C@@H](Oc3cc4cc[nH]c(=O)c4cc3Cl)CC2)cc1 (some centres undefined)
17 | 100 to 1000 nM | CC(N)(C1CCC(Oc2cc3cc[nH]c(=O)c3cc2Cl)CC1)C1CC1 (centres undefined)
18 | 100 to 1000 nM | CC(N)(C1CCCC1)C1CCC(Oc2cc3cc[nH]c(=O)c3cc2Cl)CC1 (centres undefined)
19 | 100 to 1000 nM | N[C@@H](c1ccccc1)[C@]1(c2ccccc2)CC[C@@H](Oc2cc3cc[nH]c(=O)c3cc2Cl)CC1

Row | Compound | IC50
20 | CC[C@@H](N)[C@]1(c2ccccc2)CC[C@@H](Oc2cc3cc[nH]c(=O)c3cc2Cl)CC1 | 10 to 100 nM
21 | CCC(N)[C@]1(c2cccc(Br)c2)CC[C@H](Oc2cc3cc[nH]c(=O)c3cc2Cl)CC1 (some centres undefined) | ≤ 10 nM
22 | CC[C@@H](N)[C@]1(c2ccccc2)CC[C@H](Oc2cc3cc[nH]c(=O)c3cc2Cl)CC1 | ≤ 10 nM
23 | CC[C@@H](N)[C@]1(c2ccc(F)cc2)CC[C@H](Oc2cc3cc[nH]c(=O)c3cc2Cl)CC1 | ≤ 10 nM
24 | CC[C@H](N)[C@]1(c2ccccc2)CC[C@H](Oc2cc3cc[nH]c(=O)c3cc2Cl)CC1 | ≤ 10 nM

— the Kinase Knowledgebase extract (Sharma et al. 2016)
